Test results: US6974831B2, “sPLA2 inhibitors” (Eli Lilly and Company, priority 2000, dated 2005)

How the values were obtained:
[1] = target: T1, recombinant human secreted phospholipase A2 (Homo sapiens, UniProt P14555); assay: chromogenic assay of sPLA2 inhibition (diheptanoyl thio-PC / DTNB, 96 well microtiter plates); format: biochemical; details: absorbance at 405 nanometers, 40° C. for 30 minutes, pH 7.5, titrated in triplicate and averaged
T1 sequence (P14555 21-144): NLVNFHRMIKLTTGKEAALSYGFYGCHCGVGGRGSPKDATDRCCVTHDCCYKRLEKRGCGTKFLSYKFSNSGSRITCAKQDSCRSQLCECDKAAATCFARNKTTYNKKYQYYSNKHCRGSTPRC
Text: The following chromogenic assay procedure was used to identify and evaluate inhibitors of recombinant human secreted phospholipase A2. The assay described herein has been adapted for high volume screening using 96 well microtiter plates. A general description of this assay method is found in the article, “Analysis of Human Synovial Fluid Phospholipase A2 on Short Chain Phosphatidylcholine-Mixed Micelles: Development of a Spectrophotometric Assay Suitable for a Microtiterplate Reader”, by Laure J. Reynolds, Lori L. Hughes, and Edward A Dennis, Analytical Biochemistry, 204, pp. 190-197, 1992 (the disclosure of which is incorporated herein by reference):
REACTION BUFFER— • CaCl2.2H2O (1.47 g/L) • KCl (7.455 g/L) • Bovine Serum Albumin (fatty acid free) (1 g/L) • (Sigma A-7030, product of Sigma • Chemical Co., St. Louis Mo., USA) • TRIS HCl (3.94 g/L) • pH 7.5 (adjust with NaOH)
ENZYME BUFFER— • 0.05 NaOAc.3H2O, pH 4.5 • 0.2 NaCl • Adjust pH to 4.5 with acetic acid
DTNB—5,5′-dithiobis-2-nitrobenzoic acid
RACEMIC DIHEPTANOYL THIO—PC • racemic 1,2-bis(heptanoylthio)-1,2-dideoxy-sn-glycero-3-phosphorylcholine • TRITON X-100™ prepare at 6.249 mg/ml in reaction buffer to equal […].
A measured volume of racemic dipheptanoyl thio PC supplied in chloroform at a concentration of 100 mg/ml is taken to dryness and redissolved in 10 millimolar TRITON X-100™ nonionic detergent aqueous solution. Reaction Buffer is added to the solution, then DTNB to give the Reaction Mixture.
The reaction mixture thus obtained contains 1 mM diheptanoly thio-PC substrate, 0.29 mm Triton X-100™ detergent, and 0.12 mm DTMB in a buffered aqueous solution at pH 7.5.
• 1. Add 0.2 ml reaction mixture to all wells; • 2. Add 10 ul test compound (or solvent blank) to appropriate wells, mix 20 seconds; • 3. Add 50 nanograms of sPLA2 (10 microliters) to appropriate wells; • 4. Incubate plate at 40° C. for 30 minutes; • 5. Read absorbance of wells at 405 nanometers with an automatic plate reader.
Tests were done in triplicate. Typically, compounds were tested at a final concentration of 5 ug/ml. […] Lack of color development at 405 nanometers evidenced inhibition. Compounds initially found to be active were re-assayed to confirm their activity and, if sufficiently active, IC50 values were determined. […] In all cases, % inhibition measured at 405 nanometers generated by enzyme reactions containing inhibitors relative to the uninhibited control reactions was determined. Each sample was titrated in triplicate and result values were averaged for plotting and calculation of IC50 values. IC50 values were determined by plotting log concentration versus inhibition values in the range from 10-90% inhibition.

Row | Compound | IC50 [1] | melting point
1 | COC(=O)COc1cc2c(c3c1c(C(=O)C(N)=O)c(C)n3Cc1ccccc1-c1ccccc1)CCC2 [Example 18, 2-[[3-(2-Amino-1,2-dioxoethyl)-2-methyl-1-(2-phenylbenzyl)-1,6,7,8-tetrahydrocyclopent[g]indol-4-yl]oxy]acetic acid methyl ester] | 0.19 µM | –
2 | COC(=O)COc1cc2c(c3c1c(C(=O)C(N)=O)c(C)n3Cc1ccccc1)CCC2 [Example 3, 2-[[3-(2-Amino-1,2-dioxoethyl)-2-methyl-1-benzyl-1,6,7,8-tetrahydrocyclo-pent[g]indol-4-yl]oxy]acetic acid methyl ester] | 0.106 µM | –
3 | Cc1c(C(=O)C(N)=O)c2c(OCC(=O)O)cc3c(c2n1Cc1cccc(F)c1)CCC3 [Example 7, 2-[[3-(2-Amino-1,2-dioxoethyl)-2-methyl-1-(3-fluorobenzyl)-1,6,7,8-tetrahydrocyclopent[g]indol-4-yl]oxy]acetic acid hydrate] | 0.01 µM | –
4 | CCc1c(C(=O)C(N)=O)c2c(OCC(=O)O)cc3c(c2n1Cc1ccccc1)CCCC3 [Example 13, 2-[[3-(2-Amino-1,2-dioxoethyl)-1-benzyl-2-ethyl-6,7,8,9-tetrahydro-1H-benz[g]indol-4-yl]oxy]acetic acid] | 0.011 µM | –
5 | COC(=O)COc1cc2c(c3c1c(C(=O)C(N)=O)c(C)n3Cc1ccccc1-c1ccc(Br)s1)CCC2 [Example 20, 2-[[3-(2-amino-1,2-dioxoethyl)-1-[2-(5-bromothiophen-2-yl)benzyl]-2-methyl-1,6,7,8-tetrahydrocyclopent[g]indol-4-yl]oxy]acetic acid methyl ester] | 0.638 µM | –
6 | COC(=O)COc1cc2c(c3c1c(C(=O)C(N)=O)c(C)n3Cc1ccccc1)CCCC2 [Example 14, 2-[[3-(2-Amino-1,2-dioxoethyl)-1-benzyl-2-methyl-6,7,8,9-tetrahydro-1H-benz[g]indol-4-yl]oxy]acetic acid methyl ester] | 0.109 µM | –
7 | Cc1c(C(=O)C(N)=O)c2c(OCC(=O)O)cc3c(c2n1Cc1ccccc1Br)CCC3 [Example 17, 2-[[3-(2-Amino-1,2-dioxoethyl)-2-methyl-1-(2-bromobenzyl)-1,6,7,8-tetrahydrocyclopent[g]indol-4-yl]oxy]acetic acid] | 0.01 µM | –
8 | COC(=O)COc1cc2c(c3c1c(C(=O)C(N)=O)c(C)n3Cc1ccccc1F)CCC2 [Example 8, 2-[[3-(2-Amino-1,2-dioxoethyl)-2-methyl-1-(2-fluorobenzyl)-1,6,7,8-tetrahydrocyclopent[g]indol-4-yl]oxy]acetic acid methyl ester] | 0.073 µM | –
9 | Cc1c(C(=O)C(N)=O)c2c(OCC(=O)O)cc3c(c2n1Cc1ccccc1-c1ccccc1)CCC3 [Example 19, 2-[[3-(2-Amino-1,2-dioxoethyl)-2-methyl-1-(2-phenylbenzyl)-1,6,7,8-tetrahydrocyclopent[g]indol-4-yl]oxy]acetic acid] | 0.035 µM | –
10 | Cc1c(C(=O)C(N)=O)c2c(OCC(=O)NS(=O)(=O)c3ccccc3)cc3c(c2n1Cc1ccccc1)CCC3 [Example 5, 2-[4-(2-Benzenesulfonylamino-2-oxoethoxy)-1-benzyl-2-methyl-1,6,7,8-tetrahydro-1-aza-as-indacen-3-yl]-2-oxoacetamide] | 0.007 µM | –
11 | Cc1c(C(=O)C(N)=O)c2c(OCC(=O)O)cc3c(c2n1Cc1ccccc1F)CCC3 [Example 9, 2-[[3-(2-Amino-1,2-dioxoethyl)-2-methyl-1-(2-fluorobenzyl)-1,6,7,8-tetrahydrocyclopent[g]indol-4-yl]oxy]acetic acid] | 0.009 µM | –
12 | CCc1c(C(=O)C(N)=O)c2c(OCC(=O)OC)cc3c(c2n1Cc1ccccc1)CCCC3 [Example 12, 2-[[3-(2-Amino-1,2-dioxoethyl)-1-benzyl-2-ethyl-6,7,8,9-tetrahydro-1H-benz[g]indol-4-yl]oxy]acetic acid methyl ester] | 0.1 µM | –
13 | Cc1c(C(=O)C(N)=O)c2c(OCC(=O)O)cc3c(c2n1Cc1ccccc1-c1ccc(Br)s1)CCC3 [Example 21, 2-[[3-(2-amino-1,2-dioxoethyl)-2-methyl-1-[2-(5-bromothiophen-2-yl)benzyl]-1,6,7,8-tetrahydrocyclopent[g]indol-4-yl]oxy]acetic acid] | 0.044 µM | –
14 | Cc1c(C(=O)C(N)=O)c2c(OCC(=O)O)cc3c(c2n1Cc1ccc(F)cc1)CCC3 [Example 11, 2-[[3-(2-Amino-1,2-dioxoethyl)-2-methyl-1-(4-fluorobenzyl)-1,6,7,8-tetrahydrocyclopent[g]indol-4-yl]oxy]acetic acid] | 0.082 µM | –
15 | CCc1c(C(=O)C(N)=O)c2c(OCC(=O)OC)cc3c(c2n1Cc1ccccc1)CCC3 [Example 1, 2-[[3-(2-Amino-1,2-dioxoethyl)-2-ethyl-1-benzyl-1,6,7,8-tetrahydrocyclo-pent[g]indol-4-yl]oxy]acetic acid methyl ester] | 0.108 µM | –
16 | Cc1c(C(=O)C(N)=O)c2c(OCC(=O)O)cc3c(c2n1Cc1ccccc1)CCC3 [Example 4, 2-[[3-(2-Amino-1,2-dioxoethyl)-2-methyl-1-benzyl-1,6,7,8-tetrahydrocyclopent[g]indol-4-yl]oxy]acetic acid] | 0.01 µM | –
17 | COC(=O)COc1cc2c(c3c1c(C(=O)C(N)=O)c(C)n3Cc1ccc(F)cc1)CCC2 [Example 10, 2-[[3-(2-Amino-1,2-dioxoethyl)-2-methyl-1-(4-fluorobenzyl)-1,6,7,8-tetrahydrocyclopent[g]indol-4-yl]oxy]acetic acid methyl ester] | 0.806 µM | 222 to 224 °C
18 | CCc1c(C(=O)C(N)=O)c2c(OCC(=O)O)cc3c(c2n1Cc1ccccc1)CCC3 [Example 2, 2-[[3-(2-Amino-1,2-dioxoethyl)-2-ethyl-1-benzyl-1,6,7,8-tetrahydrocyclo-pent[g]indol-4-yl]oxy]acetic acid] | 0.013 µM | –
19 | Cc1c(C(=O)C(N)=O)c2c(OCC(=O)O)cc3c(c2n1Cc1ccccc1)CCCC3 [Example 15, 2-[[3-(2-Amino-1,2-dioxoethyl)-1-benzyl-2-methyl-6,7,8,9-tetrahydro-1H-benz[g]indol-4-yl]oxy]acetic acid] | 0.01 µM | –
20 | COC(=O)COc1cc2c(c3c1c(C(=O)C(N)=O)c(C)n3Cc1ccccc1Br)CCC2 [Example 16, 2-[[3-(2-Amino-1,2-dioxoethyl)-2-methyl-1-(2-bromobenzyl)-1,6,7,8-tetrahydrocyclopent[g]indol-4-yl]oxy]acetic acid methyl ester] | 0.453 µM | –
21 | COC(=O)COc1cc2c(c3c1c(C(=O)C(N)=O)c(C)n3Cc1cccc(F)c1)CCC2 [Example 6, 2-[[3-(2-Amino-1,2-dioxoethyl)-2-methyl-1-(3-fluorobenzyl)-1,6,7,8-tetrahydrocyclopent[g]indol-4-yl]oxy]acetic Acid methyl ester] | 0.132 µM | –
